Results on one compound are retold here after patent US20220153704A1 (priority 2019, published 2022).

This data set is described as follows: DVS characterization of hygroscopicity and stability under different humidity. The format is physicochemical. Conditions: 25° C. How it is done:
The dynamic vapor sorption (DVS) graph was collected on DVS Intrinsic of SMS (Surface Measurement Systems). The relative humidity at 25° C. was corrected by the deliquescent point of LiCl, Mg(NO3)2 and KCl.
In order to evaluate the hygroscopicity and stability of anhydrous crystalline form E under different humidity conditions, DVS and XRPD tests were performed on crystalline form E samples at a constant temperature of 25° C.

In the case of `CCN1C[C@]2(COC)CC[C@H](OC)[C@]34C5C[C@]6(O)[C@@H](OC)C[C@@](OC(C)=O)(C5[C@H]6OC(=O)c5ccc(OC)cc5)[C@H](C13)[C@H](OC)[C@H]24` (stereo partly drawn) [crystalline form E, (1α,6α,14α,16β)tetrahydro-8,13,14-triol-20-ethyl-1,6,16-trimethoxy-4-methoxymethyl-8-acetoxy-14-(4′-p-methoxybenzyl)-aconitane], the “crystalline form before and after the DVS test (XRPD)” value is given as “did not change”. In addition, the “water adsorbed (DVS)” value (humidity 80% RH) is given as 0.12%. Moreover, the hygroscopicity result (DVS, up to 80% RH) was “no hygroscopicity”.
